Test results as given in PMC12956279 (2026).

How the values were obtained:
Assay in all cases: in-gel dye staining after TBE-urea PAGE
Conditions in all cases: 100 mM KCl, 1 mM MgCl2; 40 mM HEPES pH 7.5, 10 µM dye; very low fluorescence
[1] = system: 4LE-v2 (DNA, aptamer) TCCTTCGCACAGCACACCTGCCGTATTAGTAGGGATGATGCGGCAGTGGGCTTCGCAGAACAGTGTTTATTCTGCGAGGGGACTAAGCTCTGAATCAAGGATTTTAGGGAGGCGATTCCTCCTGCC
[2] = system: 4LE-v1 (DNA, aptamer) TCCTTCGCACAGCACATAGTAGGGATGATGCGGCAGTGGGCTTCGCAGAACAGTGTTTATTCTGCGAGGGGACTACCTGCCGTATAGCTCTGAATCAAGGATTTTAGGGAGGCGATTCCTCCTGCC
[3] = system: 4LE-v3 (DNA, aptamer) TCCTTCGCACAGCACACCTGCCGTATAGCTCTGAATCAATAGTAGGGATGATGCGGCAGTGGGCTTCGCAGAACAGTGTTTATTCTGCGAGGGGACTAGGATTTTAGGGAGGCGATTCCTCCTGCC

Measured: binding

CC1=N/C(=C\c2cc(F)c(O)c(F)c2)C(=O)N1CC(F)(F)F
weak: [1] | [2] | [3]
